Reference: patent publication US20190248834A1, “ENDOMORPHIN-2, TETRAPEPTIDE DERIVATIVES THEREOF, AND USES THEREOF” (priority 2016, published 2019)
Non-standard residues stand in square brackets, D forms with d. pGlu = O=C1CC[C@@H](C(=O)O)N1

Legend:
Format in all cases: in vivo, human
[1] = test system: chronic arthritic pain of left ankle; test: Example 9: analgesic effect on ankle pain, topical
Excerpt: A subject had chronic arthritic pain of their left ankle. They were previously treated with prescription corticosteroid injections.
The subject topically applied an anhydrous composition containing 0.5% (w/v) N-Ac-Tyr-Pro-Phe-Phe-NH2 (SEQ ID NO: 23) in EP73, formulated as described in Example 2, at bedtime. The next morning, they observed approximately 90% improvement of pain. The subject topically re-applied the same composition at bedtime. The following entire day, they had about 95% pain improvement.

severe migraine = test: Example 13: analgesic effect on chronic migraine headache, topical; settings: 1% (w/v) in WEP442, topical
Excerpt: One late afternoon, the subject developed severe pain in those areas, accompanied by feelings of vertigo and nausea. The subject topically applied a composition containing 1% (w/v) N-Ac-Tyr-Pro-Phe-Phe-NH2, (SEQ ID NO: 23) in WEP442 to the entire occipital scalp, including the peri-auricular areas.

[2] = test system: jaw pain after tooth extraction; test: Example 29: analgesic effect on dental extraction pain, topical
Procedure: A subject had substantial pain in the right maxillary jaw that started about 2 hours after extraction of a right maxillary tooth. […] Only negligible discomfort, perceived by touching the extraction site with the tongue, was detectable thereafter.

intense headaches = test: Example 33: analgesic effect on recurring headaches, topical; settings: 0.8% (w/v) in EP73, topical
Procedure: A subject with intense headaches after several hours of using a computer in their work as a real estate agent, topically applied to the forehead and temporal areas a composition containing 0.8% (w/v) of N-Ac-Tyr-Pro-Phe-Phe-NH2 (SEQ ID NO: 23)0 in EP73, formulated as described in Example 2. […] Such headaches, occurring 1-2 times weekly, were treated in the same manner over a 2 month interval, with headache pain being relieved each time.

psoriatic knee pain = test: Example 66: analgesic effect on psoriatic knee pain, topical; settings: 0.5% (w/v) in WEP442, topical
Excerpt: A person with plaque psoriasis of the scalp, elbows and knees for about 10 years had pain in their knees for the past 4-5 years. The knee pain had gradually worsened. […] After hiking for several hours, the knee pain sometimes re-occurred, but it was immediately relieved by topical application of the above solution composition.

tennis elbow pain = test: Example 68: analgesic effect on tennis elbow pain, topical
Excerpt: A person who played tennis recreationally for several decades developed increasingly severe pain in the elbow of their right arm. Two acupuncture treatments provided partial relief. […] They now play tennis with no pain.

[3] = test system: very severe osteoarthritis of the knees; test: Example 45: analgesic effect on osteoarthritic knees, topical lotion; settings: 1% (w/w) lotion
Procedure: One gram of the tetrapeptide derivative N-Pg-Tyr-Pro-Phe-Phe-NH2(SEQ ID NO: 44) was dissolved in propylene glycol (33 ml) and diisopropyl adipate (33 ml), and the resultant solution was mixed with an oil-in-water emulsion (33 g) to yield a light lotion containing 1% (w/w) of […] (SEQ ID NO: 44). This lotion was generously applied topically to the knees and lower legs of a subject, having very severe osteoarthritis of the knees for many years. After topical application of the lotion to the lower legs and knees, plastic film was applied to cover the treated areas. The plastic film was removed 8 hours later. […] Pain began to return after about 4 days.

discomfort of hands = test: Example 63: analgesic effect on wrist and hand pain, topical; settings: 0.5% (w/v) in WEP442, topical
Excerpt: A person hairdresser, after several hours of styling hair, experienced substantial discomfort on their hands that interfered with further pursuit of their work.

[4] = test system: chronic foot pain and neck pain; test: Example 67: analgesic effect on pain in feet and neck with plaque psoriasis, topical; settings: 0.5% (w/v) in WEP442, topical
Excerpt: A person with plaque psoriasis since their early teenage years had chronic foot pain for the past 10-15 years and neck pain for the past several years. The latter had been associated with, and aggravated by occupationally keeping their neck to one side as they held a phone against their head. […] Such topical applications provided relief for over one month when used.

[5] = test system: post-operative knee soreness; test: Example 70: analgesic effect on post-operative tenderness and soreness of knee, topical; settings: 0.6% (w/v) in WEP442, topical
Excerpt: A person underwent surgical repair of a bulging meniscus of the right knee, after which there was substantial tenderness and soreness, particularly so upon their walking, which they were advised to do a few hours daily during the recovery period. Skin glue had been used for wound closure, which allowed for topical applications of a composition containing 0.6% (w/v) of N-Pg-Tyr-Pro-Phe-Phe-NH2 (SEQ ID NO: 44) in WEP442 to the entire knee including 5 surgical wound sites. […] Repeated topical applications provided freedom of movement throughout the day with negligible discomfort.

knee pain and foot pain = test: Example 71: analgesic effect on foot sprain and knee pain following patella fracture, topical; settings: 0.5% (w/v) in WEP442, topical
Excerpt: A subject suffered severe pain in their left knee and in the arch of their left foot following a forward fall to a wooden floor. Diagnoses of multiple fractures of the patella and a bruised foot were made by x-ray. Surgical repair of the knee was done, following which severe knee pain and acute pain in the arch of the foot persisted. […] Topical applications 3-4 times daily allowed the subject to pursue rehabilitation procedures pain free.

migraine = test: Example 80: analgesic effect on pain and nausea from migraine headache, topical; settings: 0.5% (w/v) in WEP442, topical at onset of symptoms
Excerpt: A subject with a history of recurrent attacks of migraine, was provided a solution composition containing 0.5% (w/v) of N-Pg-Tyr-Pro-Phe-Phe-NH2 (SEQ ID NO: 44) in WEP442 and a solution composition containing 0.5% (w/v) of N-Ac-Tyr-Pro-Phe-Phe-NHNH2 (SEQ ID NO: 31) in WEP442. […] Sensations of nausea that might have lingered went away after several minutes following a second topical application.

CC(=O)N[C@@H](Cc1ccc(O)cc1)C(=O)N1CCC[C@H]1C(=O)N[C@@H](Cc1ccccc1)C(=O)N[C@@H](Cc1ccccc1)C(N)=O [N-Ac-Tyr-Pro-Phe-Phe-NH2]
pain improvement ([1]; 0.5% (w/v) in EP73, re-applied at bedtime, following entire day): about 95% | improvement of pain ([1]; 0.5% (w/v) in EP73, topical at bedtime, next morning): approximately 90% | pain relief (severe migraine): all pain and other symptoms disappeared | recurrence (severe migraine): no recurrence of any migraine headache during the next week | time to pain relief (severe migraine): ≤ 5 min | time to pain relief ([2]; 1% (w/v) in WEP442, topical): ≤ 1 min | pain relief ([2]; 1% (w/v) in WEP442, topical to facial maxillary area): complete relief of pain | pain relief (intense headaches): Complete headache relief | time to pain relief (intense headaches): ≤ 1 min | duration of pain relief (psoriatic knee pain): about 6 hours | pain relief (psoriatic knee pain): relieved their knee pain | range of arm motion (tennis elbow pain; 0.5% (w/v) in WEP442, about 1 week of several applications daily): returned to normal | pain relief (tennis elbow pain; 0.5% (w/v) in WEP442, topical): substantial relief of pain | time to pain relief (tennis elbow pain; 0.5% (w/v) in WEP442, topical): 2 to 4 min

N-Pg-Tyr-Pro-Phe-Phe-NH2 ([pGlu]YPFF-NH2; SMILES NC(=O)[C@H](Cc1ccccc1)NC(=O)[C@H](Cc1ccccc1)NC(=O)[C@@H]1CCCN1C(=O)[C@H](Cc1ccc(O)cc1)NC(=O)[C@@H]1CCC(=O)N1)
time to return of pain [3]: about 4 days | pain relief ([3]; under plastic film 8 hours, daily for 3 days): pain had subsided almost completely | relief of discomfort (discomfort of hands): complete relief | duration of pain relief [4]: 8 to 10 h | pain relief [4]: almost complete relief of pain | duration of pain relief [5]: 2 to 3 h | pain relief [5]: rapid, almost complete, relief of pain sensations | duration of pain relief (knee pain and foot pain): more than 6 hours | pain relief (knee pain and foot pain): immediate and complete relief of knee pain and foot pain | pain relief (migraine): complete relief of pain
